Test results published in patent publication US20240092773A1, “DIHYDRO-CYCLOPENTA-ISOQUINOLINE SULFONAMIDES DERIVATIVES” (UCB Biopharma SRL, priority 2019, published 2024).

Target: IgE-Tb binding to soluble IgE receptor FcεR1α (Y131A mutation) (Homo sapiens, UniProt P01854, N146Q/N252Q)
Experiment: In vitro FRET assay: inhibition of binding of IgE-Tb to receptor FcεR1α-Y131A-AF488
Conditions: read-out: FRET IC50 range

Sequence of IgE-Tb binding to soluble IgE receptor FcεR1α (Y131A mutation) (P01854 whole entry N146Q/N252Q, looked up): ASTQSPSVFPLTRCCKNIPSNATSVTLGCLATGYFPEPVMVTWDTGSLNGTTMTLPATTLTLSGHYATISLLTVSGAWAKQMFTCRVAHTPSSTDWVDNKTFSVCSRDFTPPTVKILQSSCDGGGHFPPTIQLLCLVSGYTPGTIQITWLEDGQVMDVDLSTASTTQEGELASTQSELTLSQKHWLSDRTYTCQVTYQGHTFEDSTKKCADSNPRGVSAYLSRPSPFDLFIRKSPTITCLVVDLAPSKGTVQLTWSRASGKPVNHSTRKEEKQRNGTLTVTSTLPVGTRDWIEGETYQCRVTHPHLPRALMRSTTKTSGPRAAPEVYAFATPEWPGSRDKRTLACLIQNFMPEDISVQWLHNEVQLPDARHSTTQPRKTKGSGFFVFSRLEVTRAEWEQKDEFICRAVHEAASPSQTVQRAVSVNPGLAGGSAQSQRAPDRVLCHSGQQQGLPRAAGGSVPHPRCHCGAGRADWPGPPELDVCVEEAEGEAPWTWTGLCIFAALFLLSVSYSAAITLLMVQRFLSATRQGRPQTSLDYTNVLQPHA

With `CC(C)CNS(=O)(=O)c1cc2c(c3cnc(C4CC4)cc13)C(Nc1nncn1-c1ccnn1C)CC2` (stereo not drawn) [Example 3, 3-cyclopropyl-N-isobutyl-9-[[4-(2-methylpyrazol-3-yl)-1,2,4-triazol-3-yl]amino]-8,9-dihydro-7H-cyclopenta[h]isoquinoline-5-sulfonamide] the IC50 was 100 to 2000 nM.
`CC(C)CNS(=O)(=O)c1cc2c(c3cnc(C4CC4)cc13)C(Nc1nncn1-c1cncc(F)c1)CC2` (stereo not drawn) [Example 5, 3-cyclopropyl-9-[[4-(5-fluoro-3-pyridyl)-1,2,4-triazol-3-yl]amino]-N-isobutyl-8,9-dihydro-7H-cyclopenta[h]isoquinoline-5-sulfonamide] gave an IC50 of 100 to 2000 nM.
`CC(C)(F)CNS(=O)(=O)c1cc2c(c3cnc(C4CC4)cc13)CCC2NCc1cc2ccccc2[nH]1` (stereo not drawn) [Example 61, 3-cyclopropyl-N-(2-fluoro-2-methylpropyl)-7-(1H-indol-2-ylmethylamino)-8,9-dihydro-7H-cyclopenta[h]isoquinoline-5-sulfonamide] showed an IC50 of 100 to 2000 nM.
`CCNC1=NS(=O)(=O)N=C1NC1CCc2cc(S(=O)(=O)NCC(C)C)c3cc(C4CC4)ncc3c21` (stereo not drawn) [Example 66, 3-cyclopropyl-9-[[4-(ethylamino)-1,1-dioxo-1,2,5-thiadiazol-3-yl]amino]-N-(2-methylpropyl)-8,9-dihydro-7H-cyclopenta[h]isoquinoline-5-sulfonamide] was tested, and the IC50 was 100 to 2000 nM.
In the case of `CC(C)CNS(=O)(=O)c1cc2c(c3cnc(C4CC4)cc13)C(n1cnnc1Nc1ccnn1C)CC2` (stereo not drawn) [Example 4, 3-cyclopropyl-N-isobutyl-9-[3-[(2-methylpyrazol-3-yl)amino]-1,2,4-triazol-4-yl]-8,9-dihydro-7H-cyclopenta[h]isoquinoline-5-sulfonamide], the IC50 is reported as 100 to 2000 nM.
Work on `CC(C)(F)CNS(=O)(=O)c1cc2c(c3cnc(C4CC4)cc13)CC[C@H]2Nc1nccn1CC1CC1` (single isomer, unassigned) [Example 13, (7R*)-3-cyclopropyl-7-[[1-(cyclopropylmethyl)imidazol-2-yl]amino]-N-(2-fluoro-2-methylpropyl)-8,9-dihydro-7H-cyclopenta[h]isoquinoline-5-sulfonamide] yielded an IC50 of 100 to 2000 nM.
